Test results published in patent US20110112086A1, “PYRIDINONE ANALOGS” (CYLENE PHARMACEUTICALS, INC., priority 2006, published 2011).
Each block holds one molecule with its values, some of them ahead of it.

What was measured:
HCT-116 = HCT-116 MTS cell viability assay; assay type: cell-based; conditions: Homo sapiens, HCT-116 cells
nucleolin = biological target: T1, nucleolin (Homo sapiens, UniProt P19338); experiment: Nucleolin/nucleic acid ligand gel retardation binding assay; design: key: A “+” represents the weakest nucleolin affinity; a “++++” represents the strongest nucleolin affinity; conditions: relative affinity of nucleic acid ligand for recombinant nucleolin (MBP fusion)
T1 construct: without the N-terminal acidic stretches domain
T1 sequence (P19338 284-710 limits assumed): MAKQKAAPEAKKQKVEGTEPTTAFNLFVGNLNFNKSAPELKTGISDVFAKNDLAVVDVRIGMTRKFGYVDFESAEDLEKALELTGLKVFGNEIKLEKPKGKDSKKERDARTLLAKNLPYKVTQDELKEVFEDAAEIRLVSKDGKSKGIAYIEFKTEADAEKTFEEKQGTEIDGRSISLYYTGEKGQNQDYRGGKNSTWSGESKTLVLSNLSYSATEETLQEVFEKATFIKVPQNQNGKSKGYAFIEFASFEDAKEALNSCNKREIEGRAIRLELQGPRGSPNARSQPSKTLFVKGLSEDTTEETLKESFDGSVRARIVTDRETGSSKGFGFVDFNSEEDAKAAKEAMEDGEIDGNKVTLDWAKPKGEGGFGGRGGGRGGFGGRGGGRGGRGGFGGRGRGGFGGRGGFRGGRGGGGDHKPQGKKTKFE
Procedure: The following assays can be used to assess the effects of compounds on interactions between nucleolin and nucleic acid ligands capable of forming quadruplex (QP) and hairpin (HP) secondary structures. Nucleic acid ligands tested were a cMyc QP DNA having nucleotide sequence 5′-[…]-3′ and a HP pre-rRNA region to which nucleolin binds, having the sequence 5′-[…]-3′. In the assays, recombinant nucleolin (˜250 nM), which has been fused to maltose binding protein, and has the sequence under accession number NM_005381 without the N-terminal acidic stretches domain, is incubated with each of the two ^32P-labeled nucleic acid ligands (10 or 250 nM). Nucleolin and the nucleic acid ligand are incubated in the presence or absence of a test compound 7 in an incubation buffer (12.5 mM Tris, pH 7.6, 60 mM KCl, 1 mM MgCl2, 0.1 mM EDTA, 1 mM DTT, 5% glycerol, 0.1 mg/ml BSA) for 30 minutes at room temperature.
The resulting complexes are separated on a 6% DNA retardation gel using 0.5×TBE with 20 mM KCl as a running buffer. The assay also can be conducted using nucleic acid ligands derived from human ribosomal DNA, whereby one can identify a compound that selectively modulates formation of a nucleolin/nucleic acid complex that depends on the conformation of the nucleic acid. Sequences of suitable nucleic acids are shown in the preceding example. […] A “+” represents the weakest nucleolin affinity and a “++++” represents the strongest nucleolin affinity. […] Using nucleic acids such as these having known conformational properties, one can identify a compound such as the compounds described herein that selectively interferes with binding of nucleolin to a particular quadruplex structure.

Molecule: CCOC(=O)c1c(=O)c2ccsc2n2c1[nH]c1cc3ccccc3cc12
IC50 (HCT-116): 4 µM

Molecule: 1196NT: nucleic acid ligand derived from human ribosomal DNA: GGGTGGACGGGGGGGCCTGGTGGGG (chemistry not given here) [Compound 1196NT]
Affinity for Nucleolin (nucleolin): +

Molecule: 6183NT: nucleic acid ligand derived from human ribosomal DNA: GGGTCGGGGGCGGTGGTGGGCCCGCGGGGG (chemistry not given here) [Compound 6183NT]
Affinity for Nucleolin (nucleolin): +

Molecule: 7733T: nucleic acid ligand derived from human ribosomal DNA: GGGAGGGGCACGGGCCGGGGGCGGGACGGG (chemistry not given here) [Compound 7733T]
Affinity for Nucleolin (nucleolin): +

Molecule: 8511NT: nucleic acid ligand derived from human ribosomal DNA: GGGGGTGGGCGGGCGGGGCCGGGGGTGGG (chemistry not given here) [Compound 8511NT]
Affinity for Nucleolin (nucleolin): ++++

Molecule: 8749NT: nucleic acid ligand derived from human ribosomal DNA: GGGAGGGCGCGCGGGTCGGGG (chemistry not given here) [Compound 8749NT]
Affinity for Nucleolin (nucleolin): +

Molecule: 11028NT: nucleic acid ligand derived from human ribosomal DNA: GGGGCGCGGCGGGGGGAGAAGGGTCGGGGCGGCAGGGG (chemistry not given here) [Compound 11028NT]
Affinity for Nucleolin (nucleolin): +

B1: 8762NT: nucleic acid ligand derived from human ribosomal DNA: CGGAGGGCGCGCGGGTCGGGGCGGCGGCGGCGGCGGCGGTGGCGGCGGCGGCGGGGGCGGCGGG (nucleic acid)
DNA: CGGAGGGCGCGCGGGTCGGGGCGGCGGCGGCGGCGGCGGTGGCGGCGGCGGCGGGGGCGGCGGG
modifications: chemistry not given here
Affinity for Nucleolin (nucleolin): ++++

The remaining lines, values ahead:

IC50 (HCT-116): 0.04 µM
Molecule: O=C(NCCN1CCCC1)c1c(=O)c2ccsc2n2c1sc1ccccc12

IC50 (HCT-116): 2.1 µM
Molecule: O=C(NCCN1CCOCC1)c1c(=O)c2ccsc2n2c1sc1ccccc12

IC50 (HCT-116): 2.05 µM
Molecule: O=C(NCc1ccccn1)c1c(=O)c2ccsc2n2c1sc1ccccc12

IC50 (HCT-116): 10 µM
Molecule: CCOC(=O)c1c(=O)c2cc(Cl)sc2n2c1sc1ccccc12

IC50 (HCT-116): 0.01 µM
Molecule: O=C(NCCN1CCCC1)c1c(=O)c2cc(Cl)sc2n2c1sc1ccccc12

IC50 (HCT-116): 0.05 µM
Molecule: O=C(NCCN1CCCC1)c1c(=O)c2cc(N3CCCC3)sc2n2c1sc1ccccc12

IC50 (HCT-116): 9.8 µM
Molecule: CCOC(=O)c1c(=O)c2ccsc2n2c1sc1ccccc12

IC50 (HCT-116): 10 µM
Molecule: CCOC(=O)c1c(=O)c2ccsc2n2c1[nH]c1ccccc12

IC50 (HCT-116): 0.3 µM
Molecule: Cn1c2cc3ccccc3cc2n2c3sccc3c(=O)c(C(=O)NCCN3CCCC3)c12

IC50 (HCT-116): 10 µM
Molecule: CCOC(=O)c1c(=O)c2cc(Br)sc2n2c1sc1ccccc12

IC50 (HCT-116): 3.2 µM
Molecule: Cn1c2ccccc2n2c3sccc3c(=O)c(C(=O)NCCN3CCCC3)c12
